The results in this text go back to patent US20050239774A1 (priority 2002, published 2005).

The target of this assay is α7 nAChR subtype (Rattus norvegicus, UniProt Q05941). Type of assay: binding. The following applies: read-out: KD of the radioligand (saturation curve, one site model).
Sequence of α7 nAChR subtype (Q05941 23-502 limits assumed): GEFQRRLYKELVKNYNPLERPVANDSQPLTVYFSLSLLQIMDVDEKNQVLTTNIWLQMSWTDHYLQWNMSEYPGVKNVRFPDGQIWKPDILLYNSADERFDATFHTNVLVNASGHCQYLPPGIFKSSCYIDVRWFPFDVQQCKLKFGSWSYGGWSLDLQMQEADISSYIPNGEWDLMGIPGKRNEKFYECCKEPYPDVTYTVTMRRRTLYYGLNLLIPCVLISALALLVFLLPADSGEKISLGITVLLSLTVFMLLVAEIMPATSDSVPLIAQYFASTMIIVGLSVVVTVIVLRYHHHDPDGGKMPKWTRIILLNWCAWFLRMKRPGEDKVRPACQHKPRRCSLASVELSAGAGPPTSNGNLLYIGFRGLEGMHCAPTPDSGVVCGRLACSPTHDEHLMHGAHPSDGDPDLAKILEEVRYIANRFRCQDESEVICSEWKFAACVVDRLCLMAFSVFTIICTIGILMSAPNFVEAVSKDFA

Take ^125I-α-Bungarotoxin [^125I-α-BTX]: the Kd came to 1.67 nM.
